Experimental data: the supplement of paper PMC10307832

What was measured:
Test in all cases: relative viability (nuclei count vs DMSO), 5 days (fraction); higher = more cells survive
GSK-J4 + Bortezomib = compound: CCOC(=O)CCNc1cc(N2CCc3ccccc3CC2)nc(-c2ccccn2)n1 [GSK-J4] + CC(C)C[C@H](NC(=O)[C@H](Cc1ccccc1)NC(=O)c1cnccn1)B(O)O [Bortezomib] (partner 0.002 µM)
Method in brief: (§1)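 One day after seeding in 1536-well plates, lung cancer cell lines were dosed by pin tool. Dosing was either single-drug or a fixed anchor-drug dose plus five library-drug doses (not always all listed) in √10 steps. After 5 days, nuclei were stained in one fix-and-stain step and counted on 4× images, and relative viability is the nuclei count of treated wells over that of vehicle wells, given as the median of duplicate plates.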

AZ3146 + AZD7762 = compound: CN1CCC(CC1)OC2=CC(=C(C=C2)NC3=NC=C4C(=N3)N(C(=O)N4C)C5CCCC5)OC [AZ3146] + NC(=O)Nc1cc(-c2cccc(F)c2)sc1C(=O)N[C@H]1CCCNC1 [AZD7762] (partner 0.2 µM)
Method in brief: as §1

AZ3146 + Phenformin = compound: CN1CCC(CC1)OC2=CC(=C(C=C2)NC3=NC=C4C(=N3)N(C(=O)N4C)C5CCCC5)OC [AZ3146] + N=C(N)NC(=N)NCCc1ccccc1 [Phenformin] (partner 250 µM)
Method in brief: as §1

GSK-J4 + Vorinostat = compound: CCOC(=O)CCNc1cc(N2CCc3ccccc3CC2)nc(-c2ccccn2)n1 [GSK-J4] + O=C(CCCCCCC(=O)Nc1ccccc1)NO [Vorinostat] (partner 1 µM)
Method in brief: as §1

Cell Line | relative viability (GSK-J4 + Bortezomib; first compound 0.5 µM) | relative viability (GSK-J4 + Bortezomib; first compound 1.581 µM) | relative viability (GSK-J4 + Bortezomib; first compound 5 µM) | relative viability (GSK-J4 + Bortezomib; first compound 15.81 µM) | relative viability (GSK-J4 + Bortezomib; first compound 50 µM) | relative viability (AZ3146 + AZD7762; first compound 0.08 µM) | relative viability (AZ3146 + AZD7762; first compound 0.253 µM) | relative viability (AZ3146 + AZD7762; first compound 0.8 µM) | relative viability (AZ3146 + AZD7762; first compound 2.53 µM) | relative viability (AZ3146 + AZD7762; first compound 8 µM) | relative viability (AZ3146 + Phenformin; first compound 0.08 µM) | relative viability (AZ3146 + Phenformin; first compound 0.253 µM) | relative viability (AZ3146 + Phenformin; first compound 0.8 µM) | relative viability (AZ3146 + Phenformin; first compound 2.53 µM) | relative viability (AZ3146 + Phenformin; first compound 8 µM) | relative viability (GSK-J4 + Vorinostat; first compound 0.5 µM) | relative viability (GSK-J4 + Vorinostat; first compound 5 µM) | relative viability (GSK-J4 + Vorinostat; first compound 15.81 µM) | relative viability (GSK-J4 + Vorinostat; first compound 50 µM) | relative viability (GSK-J4 + Vorinostat; first compound 1.581 µM)
NCI-H460 | 1.02 | 0.888 | 1 | 1.04 | 0.985 | 0.461 | 0.744 | 0.522 | 0.546 | 0.559 | 0.49 | 0.493 | 0.466 | 0.515 | 0.0767 | 0.663 | 0.623 | 0.67 | 0.656 | –
NCI-H1437 | 0.537 | 0.328 | 0.435 | 0.504 | 0.209 | 0.887 | 1.2 | 1.09 | 1.14 | 1.1 | 0.264 | 0.34 | 0.312 | 0.295 | 0.313 | 0.827 | 0.715 | 0.706 | 0.305 | 0.608
NCI-H2347 | 0.827 | 0.818 | 0.827 | 0.958 | 0.818 | 0.577 | 0.934 | 0.649 | 0.746 | 0.677 | 0.296 | 0.357 | 0.461 | 0.598 | 0.42 | 0.605 | 0.586 | 0.518 | 0.538 | 0.558
LCLC-103H | 1.05 | 0.96 | 1.02 | 0.899 | 1.07 | 0.623 | 0.714 | 0.767 | 0.789 | 0.831 | 0.317 | 0.32 | 0.348 | 0.363 | 0.38 | 0.77 | 0.624 | 0.675 | 0.546 | 0.671
NCI-H2126 | 1.02 | 0.617 | 1.09 | 1.05 | 0.998 | 0.932 | 1 | 0.948 | 1.16 | 0.998 | 0.459 | 0.508 | 0.52 | 0.538 | 0.452 | 0.762 | 0.872 | 0.572 | 0.567 | 0.659
HCC-78 | 0.442 | 0.509 | 0.565 | 0.422 | 0.491 | – | 0.577 | 0.57 | 0.53 | 0.717 | 0.421 | 0.557 | 0.566 | 0.81 | 0.551 | 0.462 | 0.601 | 0.363 | 0.587 | 0.435
PC-14 | 0.719 | 0.91 | 0.973 | 0.759 | 0.8 | 0.343 | 0.355 | 0.415 | 0.382 | 0.294 | 0.563 | 0.465 | – | 0.579 | 0.314 | 0.721 | 0.565 | 0.63 | 0.509 | 0.66
LXF-289 | 0.952 | 0.866 | 1 | 0.994 | 1.02 | 1.02 | 1.16 | 1.05 | 1.1 | 1.05 | 0.535 | 0.49 | 0.524 | 0.528 | 0.43 | 0.821 | 0.874 | 0.692 | 0.653 | 0.631
NCI-H441 | 0.749 | 0.497 | 0.401 | 0.538 | 0.348 | 1.08 | 1.31 | 1.14 | 1.09 | 0.949 | 0.762 | 0.884 | 0.812 | 0.864 | 0.737 | 0.716 | 0.779 | 0.714 | 0.715 | 0.602
NCI-H596 | 0.999 | 0.945 | 0.99 | 0.976 | 1 | 1.11 | 1.21 | 1.15 | 0.986 | 1.13 | 0.672 | 0.738 | 0.722 | 0.735 | 0.797 | 0.743 | 0.654 | 0.503 | 0.365 | 0.475
NCI-H727 | 0.934 | – | 1.19 | 0.954 | 0.35 | 0.642 | 0.575 | 0.562 | 0.568 | 0.57 | 0.456 | 0.545 | 0.341 | 0.61 | 0.417 | 1.13 | 1.45 | 1.03 | 0.758 | 0.991
NCI-H838 | 0.978 | 0.483 | – | 0.769 | 0.792 | 0.931 | 0.921 | 0.844 | 0.963 | 0.698 | 0.581 | 0.554 | 0.556 | 0.517 | 0.229 | 0.721 | 0.401 | 0.695 | 0.57 | 0.717
NCI-H1355 | 1.23 | 1.04 | 1.11 | 1.16 | 1.16 | 0.621 | 0.738 | 0.676 | 0.672 | 0.551 | 0.446 | 0.444 | 0.437 | 0.465 | 0.404 | 0.654 | 0.51 | 0.478 | 0.469 | 0.588
HARA | 1.1 | 1 | – | 1.09 | 1.08 | 0.189 | 0.416 | 0.344 | 0.21 | 0.169 | 0.384 | 0.415 | 0.436 | 0.41 | 0.404 | 0.554 | – | 0.311 | 0.246 | 0.498
201T | 1.03 | 1.08 | 1.05 | 1.14 | 1.09 | 0.534 | 0.643 | 0.634 | 0.553 | 0.594 | 0.448 | 0.446 | 0.438 | 0.424 | 0.455 | 0.927 | 0.939 | 0.896 | 0.891 | 0.828
NCI-H23 | 0.987 | – | 0.791 | 1.03 | 0.969 | 0.157 | 0.3 | 0.27 | 0.216 | 0.163 | 0.823 | 0.805 | 0.832 | 0.789 | 0.8 | 0.596 | 0.583 | 0.473 | 0.506 | 0.411
LC-2-ad | 0.932 | 0.907 | 0.749 | 1.01 | 0.94 | 0.75 | 0.841 | 0.822 | 0.886 | 0.78 | 0.54 | 0.557 | 0.614 | 0.628 | 0.609 | 0.787 | 0.325 | 0.704 | 0.528 | 0.529
NCI-H647 | 0.912 | 0.862 | 0.652 | 1.12 | 0.982 | 0.272 | 0.541 | 0.486 | 0.342 | 0.326 | 0.394 | 0.649 | 0.59 | 0.465 | 0.32 | 0.59 | 0.553 | 0.646 | 0.43 | 0.719
NCI-H1915 | 0.883 | 0.924 | 0.661 | 0.931 | 1.01 | 0.673 | 0.714 | 0.75 | 0.729 | 0.745 | 0.285 | 0.375 | 0.381 | 0.365 | 0.343 | 0.452 | – | 0.417 | 0.483 | 0.481
NCI-H2087 | 0.789 | 0.763 | – | 0.701 | 0.72 | 1.18 | 1.36 | 1.22 | 1.38 | 1.16 | 0.382 | 0.54 | 0.406 | 0.46 | 0.471 | 0.638 | 0.544 | 0.842 | 0.811 | 0.68
NCI-H2085 | 0.949 | 0.927 | 0.857 | 1.09 | 1 | 0.912 | 0.974 | 0.95 | 1.04 | 0.708 | 0.659 | 0.67 | 0.67 | 0.757 | 0.477 | 0.767 | 0.697 | 0.634 | 0.728 | 0.731
